By melting point is commonly meant the temperature, or range, at which the solid turns liquid.

Compound `CCCCCn1c2ccccc2c2cc(C(=O)c3ccccc3)ccc21` had a melting point of 116 to 117 °C.
